Results on 2 molecules are retold here after article PMC9194936, “Preclinical Activity and Pharmacokinetic/Pharmacodynamic Relationship for a Series of Novel Benzenesulfonamide Perforin Inhibitors” (ACS Pharmacology & Translational Science, 2022).

SMILES strings stand for the structures. Read-outs that look alike come from different tables or passages of the source.

For series [1], the system named is perforin-dependent cytotoxicity of KHYG-1 NK cells on K562 target cells. The series is described as follows: KHYG-1 cytotoxicity assay (51Cr-labeled K562 target cells). The series is classed as cell-based. The conditions noted are these: Homo sapiens. On the procedure: (Table 1). […] An IC90 was used rather than an IC50 as we anticipated that elevated suppression of perforin activity is likely required to preserve the transplanted bone marrow stem cells in vivo.
The inhibition of the cytotoxic activity of KHYG-1 NK cells on K562 target cells was determined as described previously.[14] Briefly, compounds were added to KHYG-1 cells at 6–7 concentrations ranging from 20 μM to 312.5 nM in 2-fold dilutions in RPMI medium (Thermo Fisher Scientific, Waltham, MA) supplemented with 0.1% bovine serum albumin (BSA; Sigma-Aldrich, St. Louis, MO) for 20 min. ^51Cr-labeled K562 leukemia target cells were added to KHYG-1 cells at an effector/target ratio of 2:1 and incubated at 37 °C for 4 h. ^51Cr release was assayed using a Harvesting Press (Skatron Instruments, Lier, Norway), and radioactivity was estimated on a Wallac Wizard 1470 Automatic γ counter (Turku, Finland). The IC90 values were calculated by fitting a four-parameter logistic sigmoidal dose–response curve to the data using Prism version 8 (GraphPad, San Diego, CA). Each IC90 value represents the mean of at least three independent experiments, where six to seven concentrations were tested in triplicate for each compound.

Series [2] has as its system recombinant perforin. Also noted: method as in PMID 28582670, PMID 28110869. Particulars: lytic activity of recombinant perforin against Jurkat T leukemia cells; cited from earlier work.
A short description of series [3]: Mouse plasma pharmacokinetics. The series is classed as in vivo. The conditions noted are these: for AUC(0-t): read-out: AUC0–24. As for the experimental part: Male C57BL/6 mice (18–25 g) were supplied and housed under controlled temperature and humidity at the Vernon Jansen Unit of the University of Auckland. The mice had access to a pelleted diet and water ad libitum. All animal experimentation followed protocols approved by the University of Auckland Animal Ethics Committee (approval #001781). Dosing solutions were prepared in 20% hydroxypropyl-β-cyclodextrin (Sigma-Aldrich). The mice received one to three doses by intraperitoneal route and were euthanised at predetermined time points (n = 3 mice per time point at 0.083, 0.25, 0.5, 1, 2, 4, 6, and 24 h for 10 mg/kg 1 and 7; 0.5, 1, 2, 6, and 24 h for 80 and 160 mg/kg 1; and 1, 6, and 24 h for 120 mg/kg 1). Blood samples (∼300 μL) were obtained through cardiac bleed and collected in ice-cold K2-EDTA tubes (BD, Franklin Lakes, NJ). Plasma was separated by centrifugation at 6500 rpm for 5 min and stored at −80 °C. On the day of analysis, plasma samples were thawed on ice and the analytes were extracted by mixing 10 μL of aliquots with four volumes of ice-cold acetonitrile/methanol (1:1 v/v) containing internal standard. The samples were kept on ice for 10 min to ensure complete protein precipitation, vortexed for 2 min, and centrifuged at 13 000 rpm for 5 min at room temperature. The clear supernatant was then diluted (1:1 v/v) with 40 μL of 0.01% formic acid in Milli-Q water prior to analysis by LC-MS/MS.
Compound concentration in biological matrices was measured by LC-MS/MS using a 6410b triple-quadrupole mass spectrometer (Agilent, Santa Clara) equipped with a multimode ionization source. The optimized mass detector conditions, namely, ionization polarity, precursor product ions, fragmentor voltage, and collision energy, were manually determined by infusing a 5 μM solution of the pure compound into the ion source. Chromatographic separation was achieved using a Zorbax SB-C18, 50 × 2.1 mm^2, 5 μm column (Agilent), and an Agilent 1100 series HPLC system. The mobile phase used was (A) 0.01% formic acid in Milli-Q water and (B) 80% acetonitrile containing 0.01% formic acid in ultrapure water at a flow rate of 0.6 mL/min. A gradient elution was used over 5 min, and the flow rate was maintained at 0.6 mL/min throughout the gradient. The column oven temperature and the autosampler temperature were set to 35 and 4 °C, respectively. […] The instrument multimode source parameters were set as follows: gas temperature, 325 °C; vaporizer, 250 °C; gas flow, 5 L/min; and nebulizer, 45 psi. The ion spray voltage was set at 3000 V. Detection of the compounds was carried out in multiple reaction monitoring mode by monitoring the m/z transitions of precursor to selective product ion. For each compound, fragmentor voltage and collision energy were optimized to achieve maximum abundance. Quadrupoles Q1 and Q3 were set to unit resolution.
Test samples were diluted up to 100-fold in blank plasma as necessary and quantitated against a calibration curve of known analyte concentrations ranging from 3 nM to 30 μM in an appropriate matrix and quality controls at 0.03, 0.3, 3, and 30 μM. Pharmacokinetic parameters were evaluated using noncompartmental analysis and pharmacokinetic simulations using one-compartment analysis on Phoenix WinNonlin version 6.2 (Certara, Princeton, NJ). Multiple-dose simulations were generated from parameters derived from single-dose simulations.

[4] abbreviates: concentration inhibiting 90% of perforin-dependent cytotoxicity, K562 targets, effector/target 2:1, 4 h, RPMI 0.1% BSA, read-out: KHYG-1 IC90.
[5] abbreviates: male, mouse, ip, 80 mg/kg single i.p. dose, C57BL/6 mice, plasma.
[6] abbreviates: male, mouse, ip, 120 mg/kg single i.p. dose, C57BL/6 mice, plasma.
Where [7] appears, read: male, mouse, ip, 160 mg/kg single i.p. dose, C57BL/6 mice, plasma.
Where [8] appears, read: male, C57BL/6, ip, mouse plasma, 10 mg/kg intraperitoneal.

The term IC90 denotes the concentration needed for an effect of 90%. Broadly, the IC50 is the concentration at which inhibition is half-maximal. In general, Cmax refers to the peak of the concentration-time curve. With `CN1Cc2cc(-c3ccc(-c4cncc(NS(=O)(=O)c5ccccc5[N+](=O)[O-])c4)s3)ccc2C1=O` [Compound 1, N-{5-[5-(2-methyl-1-oxo-2,3-dihydro-1H-isoindol-5-yl)-2-thienyl]-3-pyridinyl}-2-nitrobenzenesulfonamide], the IC90 was 0.77 µM in series [1] (KHYG-1, estimated from IC90 5.37 μM and media free fraction 0.144, read-out: unbound in vitro IC90 in KHYG-1 cells); 5.37 ± 1.1 µM in series [1] (setting [4]). Further, the half-inhibitory concentration (IC50) in series [2] was 6.65 µM. In addition, the Cmax was found to be 105 µM in series [3] (10 mg/kg single i.p. dose, C57BL/6 mice, plasma); 782 µM in series [3] (setting [5]); 1030 µM in series [3] (setting [6]); 1190 µM in series [3] (setting [7]). For the same molecule, the half-life is 2.4 to 3.4 h in series [3] (male, C57BL/6, mouse, plasma, intraperitoneal, across the dose levels 160, 120, 80 and 10 mg/kg, read-out: elimination half-life); 2.38 h in series [3] (male, mouse, ip, 10 mg/kg single i.p. dose, C57BL/6 mice, plasma, read-out: T1/2 (converted)); 2.85 h in series [3] (male, mouse, ip, 80 mg/kg single i.p. dose, C57BL/6 mice, plasma, read-out: T1/2 (converted)); 2.85 h in series [3] (male, mouse, ip, 120 mg/kg single i.p. dose, C57BL/6 mice, plasma, read-out: T1/2 (converted)); 3.36 h in series [3] (male, mouse, ip, 160 mg/kg single i.p. dose, C57BL/6 mice, plasma, read-out: T1/2 (converted)). In addition, the AUC(0-t) in series [3] (male, mouse, ip, 10 mg/kg single i.p. dose, C57BL/6 mice, plasma) was 413 µM·h; in series [3] (setting [5]), 5440 µM·h; in series [3] (setting [6]), 7320 µM·h; in series [3] (setting [7]) it was 8940 µM·h.
Usually AUC stands for the area under the concentration-time curve, a measure of exposure. A high value points to high exposure. In the case of `O=C1NCc2ccc(-c3ccc(-c4cncc(NS(=O)(=O)c5ccc(F)cc5F)c4)s3)cc21` [Compound 7, 2,4-difluoro-N-{5-[5-(3-oxo-2,3-dihydro-1H-isoindol-5-yl)-2-thienyl]-3-pyridinyl}benzenesulfonamide], the IC90 in series [1] (setting [4]) is 28.9 ± 6.7 µM. The IC50 in series [2] was 4.15 µM. In series [3] (setting [8]), this molecule had an AUC of 1220 µM·h and a Cmax of 235 µM. Also, the half-life in series [3] (male, C57BL/6, ip, mouse plasma, 10 mg/kg intraperitoneal, read-out: T1/2 (converted)) is 4.1 h.
